Test results: patent publication US20160175224A1, “ANTIPERSPIRANT COMPOSITION” (priority 2014, published 2016)

System: subjects' underarms
Experiment: In vivo study of eight-hour antiperspirant efficacy (FDA Guidelines for Effectiveness Testing of OTC Antiperspirant Drug Products, hot room, weighed pads)
Parameters: species or system human
Conditions: for Antiperspirant activity against FDA Guidelines success criteria (minimum of 20% sweat reduction in at least 50% volunteers): eight-hour efficacy, day 30 of application period; for % of subjects with reduction in relation to control / Average % of sweat reduction (mg): roll-on compositions of Examples 7-9 applied daily to one underarm for 30 days, eight hours after, hot room 37.8° C.; for % of subjects with reduction in relation to control: other underarm untreated control, 30-40% RH, 80 minutes, fifteen subjects per composition; for Average % of sweat reduction (mg): relative to untreated control underarm, pad weights
Method: An in vivo study of the eight-hour antiperspirant efficacy of the compositions of Examples 7, 8 and 9 was performed as follows using the US FOOD AND DRUG ADMINISTRATION Guidelines for Effectiveness Testing of OTC Antiperspirant Drug Products, 2003. Example 7 was comparative, as indicated above.
Fifteen subjects were used to test each composition. Subjects were first subjected to a 21-day conditioning period, which began with a 14 day wash out period. During 14 day wash out period, the subjects used a standard bar soap and bacteriostatic deodorant supplied by the institute running the study. […] Following this, from day 15 to day 21 the subjects were instructed to use only standard soap and discontinue the bacteriostatic deodorant.
During the conditioning period, subjects were instructed and supervised by a trained technician to wash their underarms according to the following procedure: a) wash one of the underarms for 10 seconds with an aqueous solution of standard soap 2.0%; b) rinse thoroughly with running water until the soap is completely removed; c) dry the underarm with a paper towel; and d) repeat the procedure with the other underarm.
After the wash out period was completed, each subject was checked for unauthorized use of antiperspirant products during the conditioning period using a cotton swab in the underarms.
Next, a 30 day application period began. 150 cm^2, randomly distributed areas were marked on each subjects' underarm. Test samples were then applied to one underarm of each subject, while the other underarm was untreated as a control every day during the 30 day application period. Subjects waxed or shaved their underarms every Friday evening.
On day 30 of the 30 day application period, each subject was provided with a 100% cotton t-shirt previously washed with water and neutral soap without fragrance and again washed only with water. The subjects were instructed to wear the T-shirts for eight hours.
After eight hours, the subjects were placed in a room at 37.8° C.±1° C. and relative humidity between 30% and 40% for 80 minutes. After 40 minutes in the hot room, pads previously weighed and stored in closed polyethylene bags were removed from the bags and placed immediately onto the subjects' underarms, and then replaced every 20 minutes. Subjects ingested 200 mL of water when entering the hot room and also 40 minutes later in order to maintain the internal level of hydration, allowing the sweat to flow freely and evidencing only the effects of the formulation of the product tested. The initial 40 minute period was considered as an acclimatization period.
Used pads were collected every 20 minutes and weighed. The weights of the pads pre- and post-use were compared according to the FDA Guidelines using statistical analysis with the Wilcoxon Signed Rank test (FDA protocol) and the Student-t test paired with the unilateral hypothesis of improvement for sweating assessment. The confidence level considered in the comparative analysis was 95%. Software: XLSTAT 2013 and MINITAB 14.

Row | Substance | Antiperspirant activity against FDA Guidelines success criteria (minimum of 20% sweat reduction in at least 50% volunteers) | % of subjects with reduction in relation to control | Average % of sweat reduction (mg) | Average % of sweat reduction (mg) (listed as acetyl hexapeptide-8)
1 | dipeptide diaminobutyroyl benzylamide diacetate | confirms antiperspirant activity | 92.3% | 25.6% | 
2 | acetyl octapeptide-3 | confirms antiperspirant activity | 81.8% | 20.7% | 
3 | acetyl hexapeptide-8 [reference compound] | did not meet success criteria | 66.7% | 8.0% | 8.0%
